Values of other authors as cited in US4324553A, “Hair dyeing compositions containing at least one 2,4-diamino-alkylbenzene as coupler” (L'Oreal, priority 1979, dated 1982).

Test system: Salmonella typhimurium (TA 1538 and TA 98)
Settings: Salmonella typhimurium TA 1538 and TA 98, with S9 mix induced by Aroclor 1254; prior-art statement

Compound	mutagenic activity as evaluated in the Ames test
Cc1ccc(N)cc1N [2,4-diaminotoluene]	very high mutagenic activity
CCc1ccc(N)cc1N [2,4-Diamino-ethylbenzene]	high mutagenic activity
